The values below come from PMC9603770, “Broad-Spectrum Inhibitors against Class A, B, and C Type β-Lactamases to Block the Hydrolysis against Antibiotics: Kinetics and Structural Characterization” (Microbiology Spectrum, 2022).

≈ marks a conversion by molar mass, not a printed value. Where two headings read alike, the source gives them in different places.

The subject of assay [1] is E. coli DH5α cells with blaAmp-C clone. Kind of assay: microbe, parasite or virus in culture. It is filed as cell-based. The conditions noted are these: Escherichia coli. Here is the method: (§1) The blaSHV-1, blaTEM-1, blaKPC-2, and blaAmp-C genes were cloned in the pET-28a vector individually, followed by its transformation in Escherichia coli DH5α cells. The MIC values was determined for clinical strains (AK-10, AK-12, AK-18, NP-6, AK-67, and AK-66) and E. coli DH5α cells with selected clones (blaSHV-1, blaTEM-1, blaKPC-2, blaAmp-C, blaCTX-M-15, and blaNDM-1) carrying vectors individually.
(§2) In a series of 2-fold dilutions, E. coli cells were given escalating doses of antibiotics from 0 to 512 μg/mL.

Assay [2] relates to E. coli DH5α cells with blaCTX-M-15 clone. Put plainly: microbe, parasite or virus in culture. Type of assay: cell-based. The conditions noted are these: Escherichia coli. The method, then: as §1, §2
Assay [3] has as its system E. coli DH5α cells with blaKPC-2 clone. Kind of assay: microbe, parasite or virus in culture. Type of assay: cell-based. The conditions noted are these: Escherichia coli. The method, then:
as §1, §2

In assay [4] the test system is E. coli DH5α cells with blaNDM-1 clone. Kind of assay: microbe, parasite or virus in culture. It is filed as cell-based. To be noted: Escherichia coli. Here is the method: as §1, §2
In assay [5] the test system is E. coli DH5α cells with blaSHV-1 clone. Kind of assay: microbe, parasite or virus in culture. It is filed as cell-based. The conditions noted are these: Escherichia coli. Here is the method: as §1, §2
Assay [6] relates to E. coli DH5α cells with blaTEM-1 clone. Kind of assay: microbe, parasite or virus in culture. Type of assay: cell-based. The conditions noted are these: Escherichia coli. Here is the method: as §1, §2
The next assay relates to clinical strain AK-10. Kind of assay: MIC, microdilution. It is filed as cell-based. The method, then:
as §1, §2

The test system of another assay is clinical strain AK-18. Kind of assay: MIC, microdilution. Type of assay: cell-based. The method, then:
as §1, §2
(In general: Broth dilution looks for growth in wells or tubes with falling amounts of substance.)

A further assay concerns clinical strain AK-66. Put plainly: MIC, microdilution. Type of assay: cell-based. The method, then:
as §1, §2

For the next assay, the system named is clinical strain AK-67. Kind of assay: MIC, microdilution. It is filed as cell-based. The method, then: as §1, §2
Another assay relates to clinical strain NP-6. Kind of assay: MIC, microdilution. It is filed as cell-based. Here is the method: as §1, §2
The next assay concerns the target T1, Amp-C (Escherichia coli, UniProt P00811).
T1 construct: made in house; host or cells: E. coli (DH5 and BL21(DE3) named; pET-28a)
Kind of assay: Steady-state kinetics of antibiotic hydrolysis with inhibitor. It is filed as biochemical. The conditions noted are these: inhibitor concentration as per IC50. The method, then:
(§3) The enzyme kinetics parameters (Km, and kcat) for all six proteins/enzymes in combination with different antibiotics (cefotaxime, imipenem, and meropenem), were calculated. The concentration of inhibitors, D63, D2148, and D2573, was as per the IC50 value (Fig. 5); the kinetic parameters are listed in Table 8.
(§4) The steady-state kinetics of all six proteins were determined using the antibiotics:imipenem (Δε295 = −11,500 M^−1 cm^−1), meropenem (Δε297 = −10,940 M^−1 cm^−1), and cefotaxime (Δε264 = −27,250 M^−1 cm^−1). In this study, the D63, D2148, and D2573 inhibitors were tested. Hydrolysis of β-lactam antibiotics was detected by monitoring the variation in absorbance due to cleavage of the β-lactam ring in 50 mM, pH 7.0, phosphate buffer ([40], [41]). For hydrolysis of substrate (cefotaxime, imipenem, and meropenem) kinetics parameters, Km and kcat were calculated by using Michaelis Menten equations (equations 2 and 3). (2) V =Vmax [S]/Km + [S] (3) kcat = Vmax/E where E and S are the enzyme and substrate concentration, Km is the Michaelis-Mentent constant, kcat is the turnover number, and V and Vmax are the initial and maximum velocity of the hydrolysis, respectively.

Assay [7] concerns the target T2, CTX-M-15 (Escherichia coli, UniProt Q9EXV5).
T2 construct: made in house; host or cells: E. coli (DH5 and BL21(DE3) named)
Described as above. It is filed as biochemical. The conditions noted are these: inhibitor concentration as per IC50. The method, then: as §3, §4

The target in the next assay is T3, KPC-2 (Klebsiella pneumoniae, UniProt Q9F663).
T3 construct: made in house; host or cells: E. coli (DH5 and BL21(DE3) named; pET-28a)
Described as above. To be noted: inhibitor concentration as per IC50. It is filed as biochemical. Here is the method: as §3, §4

A further assay concerns the target T4, NDM-1 (Klebsiella pneumoniae, UniProt C7C422).
T4 construct: made in house; host or cells: E. coli (DH5 and BL21(DE3) named)
Described as above. Type of assay: biochemical. To be noted: inhibitor concentration as per IC50. Here is the method:
as §3, §4

The next assay deals with T5, SHV-1 (Klebsiella pneumoniae, UniProt P0AD64).
T5 construct: made in house; host or cells: E. coli (DH5 and BL21(DE3) named; pET-28a)
Described as above. To be noted: inhibitor concentration as per IC50. Type of assay: biochemical. Here is the method:
as §3, §4

A further assay concerns the target T6, TEM-1 (Escherichia coli, UniProt P62593).
T6 construct: made in house; host or cells: E. coli (DH5 and BL21(DE3) named; pET-28a)
Described as above. It is filed as biochemical. To be noted: inhibitor concentration as per IC50. The method, then:
as §3, §4

Assay [8] deals with T2, CTX-M-15. On the set-up: method as in PMID 20921316. To be noted: cited from earlier work.
[9] abbreviates: clinical strain AK-66, read-out: MIC.

T6 sequence (P62593 24-286 limits assumed): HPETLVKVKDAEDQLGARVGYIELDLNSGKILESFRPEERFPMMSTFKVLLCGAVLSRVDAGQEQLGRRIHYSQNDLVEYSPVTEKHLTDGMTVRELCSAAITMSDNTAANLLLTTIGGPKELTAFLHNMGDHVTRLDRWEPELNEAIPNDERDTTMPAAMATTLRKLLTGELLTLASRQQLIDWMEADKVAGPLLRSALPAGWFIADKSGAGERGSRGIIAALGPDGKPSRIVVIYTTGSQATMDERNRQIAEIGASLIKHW
T3 sequence (Q9F663 25-293, looked up, species assumed): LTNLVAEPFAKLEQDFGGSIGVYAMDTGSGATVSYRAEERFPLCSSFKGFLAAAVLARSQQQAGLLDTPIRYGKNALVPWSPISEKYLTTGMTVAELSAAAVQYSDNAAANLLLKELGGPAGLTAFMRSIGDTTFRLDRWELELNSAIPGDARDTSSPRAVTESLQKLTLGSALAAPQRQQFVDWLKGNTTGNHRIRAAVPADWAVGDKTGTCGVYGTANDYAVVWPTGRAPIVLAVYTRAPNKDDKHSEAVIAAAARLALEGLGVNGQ
T2 sequence (Q9EXV5 29-291, species assumed): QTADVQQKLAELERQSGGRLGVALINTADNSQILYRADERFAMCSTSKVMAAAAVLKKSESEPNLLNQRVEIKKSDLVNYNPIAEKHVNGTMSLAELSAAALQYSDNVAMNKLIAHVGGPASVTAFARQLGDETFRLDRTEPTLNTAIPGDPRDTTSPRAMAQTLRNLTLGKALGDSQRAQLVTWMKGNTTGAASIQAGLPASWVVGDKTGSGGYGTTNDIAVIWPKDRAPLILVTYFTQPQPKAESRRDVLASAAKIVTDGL
T4 sequence (C7C422 29-270, looked up, species assumed): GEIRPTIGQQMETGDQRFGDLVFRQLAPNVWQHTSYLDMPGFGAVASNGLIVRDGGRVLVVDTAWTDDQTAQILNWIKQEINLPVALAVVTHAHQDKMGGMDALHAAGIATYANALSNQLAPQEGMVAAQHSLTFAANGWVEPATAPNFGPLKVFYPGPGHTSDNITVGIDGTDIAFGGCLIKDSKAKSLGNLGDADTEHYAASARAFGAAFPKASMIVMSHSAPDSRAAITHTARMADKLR
T5 sequence (P0AD64 22-286): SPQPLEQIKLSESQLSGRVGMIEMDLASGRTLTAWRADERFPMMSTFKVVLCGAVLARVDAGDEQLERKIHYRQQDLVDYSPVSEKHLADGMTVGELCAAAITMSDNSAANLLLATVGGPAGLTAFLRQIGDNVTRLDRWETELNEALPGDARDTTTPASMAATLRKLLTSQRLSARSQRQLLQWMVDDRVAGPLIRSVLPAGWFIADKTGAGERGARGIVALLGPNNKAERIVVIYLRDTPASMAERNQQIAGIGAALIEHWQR
T1 sequence (P00811 20-377): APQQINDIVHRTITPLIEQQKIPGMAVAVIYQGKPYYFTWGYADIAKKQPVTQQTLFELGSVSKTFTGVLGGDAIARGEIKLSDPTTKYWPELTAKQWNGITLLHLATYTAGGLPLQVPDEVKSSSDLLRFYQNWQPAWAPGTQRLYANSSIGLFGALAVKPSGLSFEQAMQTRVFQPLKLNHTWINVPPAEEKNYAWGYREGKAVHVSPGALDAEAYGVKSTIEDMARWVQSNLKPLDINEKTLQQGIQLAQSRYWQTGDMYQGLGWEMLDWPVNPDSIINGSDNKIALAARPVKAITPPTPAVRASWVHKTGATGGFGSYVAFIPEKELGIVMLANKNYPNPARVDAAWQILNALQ

Take `CO/N=C(\C(=O)N[C@@H]1C(=O)N2C(C(=O)O)=C(COC(C)=O)CS[C@H]12)c1csc(N)n1` [Cefotaxime]: the MIC in assay [1] is 2 µg/mL (≈ 4.39 µM); in assay [2], 512 µg/mL (≈ 1120 µM); in assay [3], 2 µg/mL (≈ 4.39 µM); in assay [4], 256 µg/mL (≈ 562 µM); in [5] it was 4 µg/mL (≈ 8.78 µM); in assay [6], 2 µg/mL (≈ 4.39 µM). The MIC in the assay on clinical strain AK-10 stood at 1020 µg/mL (≈ 2250 µM); against clinical strain AK-18, 32 µg/mL (≈ 70.3 µM); with clinical strain AK-66 it was 512 µg/mL (≈ 1120 µM); against clinical strain AK-67, 512 µg/mL (≈ 1120 µM); against clinical strain NP-6 it was 16 µg/mL (≈ 35.1 µM).

For the compound `NC(=O)[C@@H]1CC[C@@H]2CN1C(=O)N2OS(=O)(=O)O` [Avibactam, reference compound], the “Km or Ki” value is 1,199 μΜ on Amp-C (cefotaxime); 321 μΜ on Amp-C (imipenem); 1,442 μΜ at Amp-C (meropenem); 2047 μΜ on CTX-M-15 [7] (cefotaxime); 2,918 μΜ on CTX-M-15 [7] (imipenem); 745.5 μΜ at CTX-M-15 [7] (meropenem). Further, the “Km or Ki” value is given as 1299 μΜ at KPC-2 (cefotaxime); 2,637 μΜ at KPC-2 (imipenem); 1,740 μΜ at KPC-2 (meropenem); 212.2 μΜ at NDM-1 (cefotaxime); 615.5 μΜ on NDM-1 (imipenem); 440.9 μΜ on NDM-1 (meropenem). The “Km or Ki” value on SHV-1 (cefotaxime) was 1,201 μΜ; on SHV-1 (imipenem), 835.4 μΜ; at SHV-1 (meropenem) it was 532 μΜ; at TEM-1 (cefotaxime), 1,558 μΜ; at TEM-1 (imipenem) it was 2,918 μΜ; at TEM-1 (meropenem) it was 12,315 μΜ. The kcat at Amp-C (cefotaxime) is recorded as 1.417 S^−1; on Amp-C (imipenem), 0.861 S^−1; on Amp-C (meropenem), 2.213 S^−1; on CTX-M-15 [7] (cefotaxime), 1.858 S^−1; on CTX-M-15 [7] (imipenem), 0.4807 S^−1; on CTX-M-15 [7] (meropenem) it was 1.566 S^−1. Besides, the kcat was 0.549 S^−1 on KPC-2 (cefotaxime); 1.499 S^−1 at KPC-2 (imipenem); 0.72 S^−1 on KPC-2 (meropenem); 1.036 S^−1 on NDM-1 (cefotaxime); 2.194 S^−1 on NDM-1 (imipenem); 1.268 S^−1 at NDM-1 (meropenem). Besides, the kcat at SHV-1 (cefotaxime) stood at 0.6119 S^−1; at SHV-1 (imipenem), 0.5531 S^−1; on SHV-1 (meropenem), 0.4803 S^−1; at TEM-1 (cefotaxime) it was 1.339 S^−1; at TEM-1 (imipenem), 1.107 S^−1; at TEM-1 (meropenem) it was 5.916 S^−1. The IC50 on CTX-M-15 [8] is 5 nM.

For the compound `C[C@@H](O)[C@H]1C(=O)N2C(C(=O)O)=C(SCCN=CN)C[C@H]12` [Imipenem], the MIC in assay [1] is 16 µg/mL (≈ 53.4 µM); in assay [2] it was 32 µg/mL (≈ 107 µM); in [3] it was 16 µg/mL (≈ 53.4 µM); in assay [4], 512 µg/mL (≈ 1710 µM); in assay [5], 16 µg/mL (≈ 53.4 µM); in assay [6], 16 µg/mL (≈ 53.4 µM). For the same compound, the MIC stood at 128 µg/mL (≈ 428 µM) against clinical strain AK-10, 1020 µg/mL (≈ 3420 µM) in the assay with clinical strain AK-66 (setting [9]) and 64 µg/mL (≈ 214 µM) in the assay on clinical strain NP-6.

Take `CO[C@@]1(NC(=O)Cc2cccs2)C(=O)N2C(C(=O)O)=C(COC(N)=O)CS[C@@H]21` [Cefoxitin]: the MIC in assay [1], in assay [2], in assay [3], in [4], in [5] and in assay [6] was 32 µg/mL (≈ 74.9 µM) each time. Further, the MIC in the assay on clinical strain AK-66 (setting [9]) and with clinical strain NP-6 was 64 µg/mL (≈ 150 µM) throughout.

Consider `C[C@@H](O)[C@H]1C(=O)N2C(C(=O)O)=C(S[C@@H]3CN[C@H](C(=O)N(C)C)C3)[C@H](C)[C@H]12` [Meropenem], for which the MIC was 4 µg/mL (≈ 10.4 µM) in [1]; 2 µg/mL (≈ 5.22 µM) in [2]; 2 µg/mL (≈ 5.22 µM) in [3]; 1020 µg/mL (≈ 2670 µM) in assay [4]; 2 µg/mL (≈ 5.22 µM) in assay [5]; 2 µg/mL (≈ 5.22 µM) in assay [6]. Besides, the MIC against clinical strain AK-10 turned out to be 32 µg/mL (≈ 83.4 µM); in the assay on clinical strain AK-18 it was 32 µg/mL (≈ 83.4 µM); with clinical strain AK-66 (setting [9]), 1020 µg/mL (≈ 2670 µM); with clinical strain NP-6, 16 µg/mL (≈ 41.7 µM).

Usually IC50 stands for the point on the concentration scale where inhibition reaches its midpoint.
